From DBAASP
In brackets after ≈: the same amount, converted by molar mass. Several values for one entry are separate records, joined by “and”; a condition that tells them apart may be missing. Identical values can stand only once. One block for each molecule: values may come before it.

Legend:
Assay in all cases: ≥ marks a high value that may be exact or a test limit, other limits are often not marked, values filed in µg/mL are converted to µM
Acinetobacter baumannii = tested on: Acinetobacter baumannii
Staphylococcus aureus = tested on: Staphylococcus aureus
[1] = tested on: Staphylococcus epidermidis ATCC 1435
[2] = tested on: Staphylococcus aureus ATCC 25923
[3] = tested on: Pseudomonas aeruginosa ATCC 10662
[4] = tested on: Escherichia coli ATCC 25922
[5] = tested on: Lactococcus garvieae MT2291
[6] = tested on: Vibrio anguillarum MT1742
[7] = tested on: Aeromonas salmonicida MT423
[8] = tested on: Aeromonas salmonicida MT004
[9] = tested on: Vibrio anguillarum MT1741
[10] = tested on: Escherichia coli NCIMB 12260
[11] = tested on: Lactococcus garvieae MT2055
Yersinia ruckeri MT252 = tested on: Yersinia ruckeri MT252
Bacillus subtilis 168 HT = tested on: Bacillus subtilis 168 HT
Escherichia coli MG1655 = tested on: Escherichia coli MG1655
[12] = tested on: Salmonella typhimurium KCTC 1926
[13] = tested on: Staphylococcus epidermidis KCTC 1917
[14] = tested on: Pseudomonas aeruginosa ATCC 15692
[15] = tested on: Listeria monocytogenes KCTC 19111
[16] = tested on: Pseudomonas aeruginosa ATCC 21625
Escherichia coli UB1005 = tested on: Escherichia coli UB1005
[17] = tested on: Pseudomonas aeruginosa ATCC 10419
[18] = tested on: Escherichia coli CVCC 1515
[19] = tested on: Salmonella enterica subsp. enterica serovar Pullorum C79-13
[20] = tested on: Staphylococcus aureus ATCC 29213
Escherichia coli ER2566 = tested on: Escherichia coli ER2566
Escherichia coli K88 = tested on: Escherichia coli K88
Escherichia coli 078 = tested on: Escherichia coli 078
[21] = tested on: Pseudomonas aeruginosa ATCC 21630
[22] = tested on: Staphylococcus epidermidis ATCC 12228
[23] = tested on: Enterococcus faecalis ATCC 29212
[24] = tested on: Escherichia coli CMCC 44102
[25] = tested on: Pseudomonas aeruginosa ATCC 27853
[26] = tested on: Salmonella enterica subsp. enterica serovar Typhimurium ATCC 14028
[27] = tested on: Salmonella enterica subsp. enterica serovar Typhimurium C77-31
[28] = tested on: Bacillus subtilis ATCC 11060
[29] = tested on: Streptococcus sanguinis ATCC 10556
[30] = tested on: Streptococcus mutans ATCC UA159
[31] = tested on: Candida albicans ATCC 5314

MIC (Acinetobacter baumannii): 1.2 µM (≈ 3.1 µg/mL) | MIC (Staphylococcus aureus): 2.4 µM (≈ 6.2 µg/mL) | MIC [1]: 1.2 µM (≈ 3.1 µg/mL) | MIC [2]: 1.2 µM (≈ 3.1 µg/mL) | MIC [3]: 9.66 µM (≈ 25 µg/mL) | MIC [4]: 1.2 µM (≈ 3.1 µg/mL)
SMILES: CC[C@H](C)[C@H](NC(=O)[C@H](Cc1cnc[nH]1)NC(=O)[C@H](Cc1cnc[nH]1)NC(=O)[C@H](Cc1ccccc1)NC(=O)[C@@H](N)Cc1ccccc1)C(=O)N[C@@H](Cc1ccccc1)C(=O)N[C@@H](CCCN=C(N)N)C(=O)NCC(=O)N[C@@H](CCCCN)C(=O)N[C@H](C(=O)N[C@@H](Cc1cnc[nH]1)C(=O)N[C@H](C(=O)NCC(=O)N[C@@H](CCCCN)C(=O)N[C@H](C(=O)N[C@H](C(=O)N[C@@H](Cc1cnc[nH]1)C(=O)N[C@@H](CCCN=C(N)N)C(=O)N[C@@H](CC(C)C)C(=O)N[C@H](C(=O)N[C@H](C(=O)NCC(N)=O)[C@@H](C)O)C(C)C)[C@@H](C)CC)[C@@H](C)O)C(C)C)C(C)C [FFHHIFRGKVHVGKTIHRLVTG]

MIC [5]: 0.528 µM (≈ 1.6 µg/mL) | MIC [6]: 0.528 µM (≈ 1.6 µg/mL) | MIC [8]: 0.528 µM (≈ 1.6 µg/mL) | MIC [9]: 0.528 µM (≈ 1.6 µg/mL) | MIC [10]: 0.528 µM (≈ 1.6 µg/mL) | MIC [11]: 0.528 µM (≈ 1.6 µg/mL) | MIC (Yersinia ruckeri MT252): 0.528 µM (≈ 1.6 µg/mL)
SMILES: CC[C@H](C)[C@H](NC(=O)CNC(=O)[C@H](CCCCN)NC(=O)[C@@H](NC(=O)[C@@H](NC(=O)[C@H](Cc1cnc[nH]1)NC(=O)[C@H](Cc1cnc[nH]1)NC(=O)[C@@H](NC(=O)[C@@H](N)Cc1ccccc1)[C@@H](C)CC)[C@@H](C)CC)[C@@H](C)CC)C(=O)N[C@@H](Cc1ccccc1)C(=O)N[C@@H](Cc1cnc[nH]1)C(=O)N[C@H](C(=O)NCC(=O)N[C@@H](CCCCN)C(=O)N[C@@H](CCSC)C(=O)N[C@H](C(=O)N[C@@H](Cc1cnc[nH]1)C(=O)N[C@@H](CO)C(=O)N[C@@H](C)C(=O)N[C@H](C(=O)N[C@@H](CC(N)=O)C(=O)N[C@@H](CCCN=C(N)N)C(=O)N[C@@H](CCCN=C(N)N)C(=O)N[C@@H](CCCN=C(N)N)C(=O)N[C@@H](Cc1cnc[nH]1)C(=O)O)[C@@H](C)CC)[C@@H](C)CC)[C@@H](C)CC [FIHHIIKGIFHIGKMIHSAINRRRH]
MIC [7]: 0.528 µM (≈ 1.6 µg/mL)

MIC (Bacillus subtilis 168 HT): ≥ 102 µM | MIC (Escherichia coli MG1655): ≥ 102 µM
SMILES: CC[C@H](C)[C@H](N)C(=O)N[C@@H](CCCCN)C(=O)N[C@H](C(=O)N[C@H](C(=O)N[C@@H](C)C(=O)N1CCC[C@H]1C(=O)N[C@@H](CCCCN)C(=O)N[C@@H](CCCCN)C(=O)N[C@H](C(=O)N[C@@H](CCCCN)C(=O)N[C@@H](CC(C)C)C(=O)O)[C@@H](C)CC)C(C)C)[C@@H](C)CC [IKIVAPKKIKL]

MIC [2]: 2 µM (≈ 4.88 µg/mL) | MIC [12]: 2 µM (≈ 4.88 µg/mL) | MIC [13]: 1 µM (≈ 2.44 µg/mL) | MIC [4]: 1 µM (≈ 2.44 µg/mL) | MIC [14]: 2 µM (≈ 4.88 µg/mL) | MIC [15]: 1 µM (≈ 2.44 µg/mL)
SMILES: NCCCC[C@H](NC(=O)[C@H](Cc1ccc(O)cc1)NC(=O)[C@H](Cc1c[nH]c2ccccc12)NC(=O)[C@H](CCCCN)NC(=O)[C@H](CCCCN)NC(=O)[C@H](Cc1ccc(O)cc1)NC(=O)[C@H](Cc1c[nH]c2ccccc12)NC(=O)[C@H](CCCCN)NC(=O)[C@H](CCCCN)NC(=O)[C@H](Cc1ccc(O)cc1)NC(=O)[C@H](Cc1c[nH]c2ccccc12)NC(=O)[C@H](CCCCN)NC(=O)[C@H](CCCCN)NC(=O)[C@H](Cc1ccc(O)cc1)NC(=O)[C@H](Cc1c[nH]c2ccccc12)NC(=O)[C@@H](N)CCCCN)C(N)=O [KWYKKWYKKWYKKWYK]

MIC [16]: 4.01 µM (≈ 14.8 µg/mL) | MIC (Escherichia coli UB1005): 2.01 µM (≈ 7.39 µg/mL) | MIC [17]: 4.01 µM (≈ 14.8 µg/mL) | MIC [18]: 4.01 µM (≈ 14.8 µg/mL) | MIC [19]: 4.01 µM (≈ 14.8 µg/mL) | MIC [20]: 2.01 µM (≈ 7.39 µg/mL) | MIC (Escherichia coli ER2566): 1 µM (≈ 3.69 µg/mL) | MIC (Escherichia coli K88): 0.515 µM (≈ 1.9 µg/mL) | MIC [2]: 8.02 µM (≈ 29.6 µg/mL) | MIC (Escherichia coli 078): 4.01 µM (≈ 14.8 µg/mL) | MIC [21]: 2.01 µM (≈ 7.39 µg/mL) | MIC [22]: 2.01 µM (≈ 7.39 µg/mL) | MIC [23]: 1 µM (≈ 3.69 µg/mL) | MIC [24]: 0.515 µM (≈ 1.9 µg/mL) | MIC [25]: 4.01 µM (≈ 14.8 µg/mL) | MIC [4]: 1 µM and 2.01 µM | MIC [26]: 2.01 µM (≈ 7.39 µg/mL) | MIC [27]: 4.01 µM (≈ 14.8 µg/mL) | MIC [28]: 2.01 µM (≈ 7.39 µg/mL)
SMILES: CC[C@H](C)[C@H](NC(=O)[C@H](CCCCN)NC(=O)[C@H](CCCCN)NC(=O)[C@H](CC(C)C)NC(=O)[C@H](CCCN=C(N)N)NC(=O)[C@H](Cc1c[nH]c2ccccc12)NC(=O)[C@H](CCCN=C(N)N)NC(=O)[C@@H](NC(=O)[C@H](CCCCN)NC(=O)[C@H](Cc1c[nH]c2ccccc12)NC(=O)[C@H](CCCN=C(N)N)NC(=O)[C@H](CC(C)C)NC(=O)[C@H](CCCN=C(N)N)NC(=O)[C@H](CCCN=C(N)N)NC(=O)[C@H](Cc1ccccc1)NC(=O)[C@@H](N)CCCN=C(N)N)[C@@H](C)O)C(=O)N[C@H]1CSSC[C@@H](C(=O)N[C@H](C(N)=O)C(C)C)NC(=O)[C@H](C(C)C)NC(=O)[C@@H]2CSSC[C@H](NC(=O)[C@H](Cc3ccc(O)cc3)NC1=O)C(=O)N[C@@H](CCCN=C(N)N)C(=O)N[C@@H](CCCN=C(N)N)C(=O)N[C@@H](CCCN=C(N)N)C(=O)N[C@@H](Cc1ccccc1)C(=O)N2 [RFRRLRWKTRWRLKKICYCRRRFCVCV]

MIC [29]: 25.1 µM (≈ 64 µg/mL) | MIC [30]: 6.28 µM (≈ 16 µg/mL) | MIC [31]: 12.6 µM (≈ 32 µg/mL) | MIC (Staphylococcus aureus): 12.6 µM (≈ 32 µg/mL) | MIC [2]: 25.1 µM (≈ 64 µg/mL)
SMILES: CC[C@H](C)[C@H](NC(=O)[C@H](CCCCN)NC(=O)[C@H](CCCN=C(N)N)NC(=O)[C@@H](NC(=O)[C@@H](N)Cc1ccc(O)cc1)[C@@H](C)CC)C(=O)N[C@@H](CCCN=C(N)N)C(=O)N[C@@H](CCCN=C(N)N)C(=O)N[C@@H](Cc1ccccc1)C(=O)N[C@@H](Cc1ccccc1)C(=O)N[C@@H](CCCCN)C(=O)N[C@@H](CCCCN)C(=O)N[C@@H](CCCN=C(N)N)C(=O)N[C@@H](Cc1ccccc1)C(=O)N[C@@H](CCCCN)C(=O)N[C@@H](Cc1ccccc1)C(=O)N[C@@H](CCCN=C(N)N)C(=O)N[C@@H](CCCCN)C(=O)N[C@@H](CCCCN)C(N)=O [YIRKIRRFFKKRFKFRKK]
